# Laboratory results as given in patent EP0888346B1, “CORALYNE ANALOGS AS TOPOISOMERASE INHIBITORS” (RUTGERS, THE STATE UNIVERSITY OF NEW JERSEY, priority 1996, dated 1997).
# pIC50: −log10 of the molar value.
# System: camptothecin-resistant CPT-K5 cells
# Experiment: MTT-microtiter plate tetrazolinium cytotoxicity assay (MTA), camptothecin-resistant cells
# Conditions: Homo sapiens, CPT-K5, 96 h, read-out: Cytotoxicity IC50 CPT-K5
# Protocol: The IC50 of the drugs tested were determined by the MTT-microtiter plate tetrazolinium cytotoxicity assay (MTA) (Mosmann, T., J. Immunol. Methods 65:55-63 (1983); Denizot et al., J. Immunol. Methods 89:271-277 (1986)). Human lymphoblast RPMI 8402 cells and their camptothecin-resistant CPT-K5 cells (Andoh et al., Proc. Natl. Acad. Sci., USA 84:5565-5569 (1987)) were kindly provided by Dr. Toshiwo Andoh (Aichi Cancer Center Research Institute, Nagoya, Japan). […] Cells (2000 cells/well, seeded in […] growth medium) were grown in suspension at 37°C in 5% CO2 and maintained by regular passage in RPMI medium supplemented with 10% heat inactivated fetal bovine serum, L-glutamine (2 mM), penicillin (100 U/ml), and streptomycin (0.1 mg/ml). The cells were exposed continuously for 4 days to different drug concentrations, and assayed at the end of the fourth day. Each concentration and the no drug control were repeated at least twice in 6 replica wells. The results were plotted and the IC50 then measured. The drug sensitive human epidermoid carcinoma KB 3-1 cell line and its vinblastine-selected multidrug-resistant variant KB-V1 cells (Akiyama et al., Genetics 11:117-126 (1985)) were kindly provided by Dr. Michael Gottesmann (National Cancer Institute). They were grown as monolayer cultures at 37°C in 5% CO2 and maintained by regular passage in Dulbecco's minimal essential medium supplemented with 10% heat inactivated fetal bovine serum. KB-V1 cells were maintained in the presence of […] vinblastine.
structure (smiles),measurement,value
"CC[C@@]1(O)C(=O)OCc2c1cc1n(c2=O)Cc2cc3ccccc3nc2-1 [CPT, camptothecin, reference compound]",pIC50,< 5.00
